Results reported in patent publication US20240124456A1, “AZA-ERGOLINE DERIVATIVE AND PREPARATION METHOD THEREFOR AND APPLICATION THEREOF” (SHANGHAITECH UNIVERSITY, priority 2021, published 2024).

Key:
Format in all cases: in vivo
C57B6 male mice [1] = test: Old and novel object recognition, MK801 recognition impairment model; details: for Distinguishing index (DI): MK801 (0.3 mg/kg) 14 injections in 7 days, 7 days recovery
Experimental: The experimental animals were C57B6 male mice, n=8 in each group. Firstly, mice were intraperitoneally injected with MK801 at 0.3 mg/kg twice a day for seven consecutive days to establish a recognition impairment model, and control mice were intraperitoneally injected with normal saline containing the same amount of DMSO. The mice then underwent a seven-day recovery in home cages. After the recovery period expired, the old and novel object distinguishing experiment was performed on the mice to determine the effect of the compounds on the recognition ability of the mice.
Novel and old object recognition experiment: The experiment was carried out in a low-light environment. Before the experiment started, the mice were placed in the experimental field in advance and adapted to the environment for one hour in the low-light environment. After environmental adaptation, the mice were administered intraperitoneally. 30 minutes after the administration, the mice were put in an open field (diameter of the open field of 40 cm) in which two identical objects had been placed beforehand. The mice explored freely in the open field for 10 minutes, and then were removed from the open field and returned to the cage. After a one-hour interval, the mice returned to the open field, where an old object and a novel object were placed in advance in the same position in the open field. Again, the mice explored freely in the open field for 10 minutes. The distinguishing time of the mice for the old object and the novel object was recorded separately and the distinguishing index was calculated. The calculation method of the distinguishing index was (exploration time for novel object−exploration time for old object)/(exploration time for novel object+exploration time for old object). Object exploration by the mice was defined as sniffing, climbing, and direct contact with the object. Data statistics were carried out using Student-t-test, p<0.05 was *, p<0.01 was **, p<0.001 was ***, p<0.0001 was ****.

C57B6 male mice [2] = test: Forced swimming experiment after 5 h restraint (depression-like behavior); details: restraint for five hours
Experimental: (§1) The experimental animals were C57B6 male mice, n=8 in each group. Firstly, the C57B6 mice were induced to develop depression-related behavioral representations by restraining the mice for 5 hours, and then the effects of the compounds on their “depression-like” behaviors were determined by tail suspension and forced swimming experiments. The specific experimental procedure was as follows. First, the mice were restrained using a mouse fixator for tail vein injection. During the restraint process, all behavioral abilities of the mice were restricted under the condition of ensuring minimal pain to the mice. The mice were administered intraperitoneally once before and after restraint, respectively. After the restraint, the mice returned to the cage to recover for 30 minutes. After the 30 minutes, the mice in different groups were subjected to tail suspension or forced swimming to detect their “depression-like” behavior, respectively.
Forced swimming experiment: the mouse was placed in a 5 L glass beaker filled with water, the water surface height was 15 cm, and the mouse needed to swim continuously in the beaker for 6 minutes. The first two minutes was the adaptation period and no data collection was performed. The time of the intermittent immobility behavior of the mouse was recorded in the next four minutes, and the immobility behavior of the mouse was defined as: the mouse float passively on the surface of the water without movement, with only small local movements required to maintain afloat. The duration of this immobility state was used to measure the degree of behavioral despair in the mouse. Data statistics were carried out using Student-t-test, p<0.05 was *, p<0.01 was **, p<0.001 was ***, p<0.0001 was ****. The results of statistical data of restrained and unrestrained mouse tail suspension experiment and forced swimming experiment are shown in Table 8.

C57B6 male mice [3] = test: Tail suspension experiment after 5 h restraint (depression-like behavior); details: for Immobility time, tail suspension experiment: restraint for five hours
Experimental: as §1
Tail suspension experiment: the tip of the tail of the mouse was fixed on the suspension rod of the iron stand by adhesive tape, and the mouse remained in the hanging position for 6 minutes. The first 2 minutes was the adaptation period, and no data collection was performed, and the time of the intermittent immobility behavior of the mouse was recorded in the next 4 minutes. The duration of this immobility state was used to measure the degree of behavioral despair in the mouse. Data statistics were carried out using Student-t-test, p<0.05 was *, p<0.01 was **, p<0.001 was ***, p<0.0001 was ****.

CN(C)C(=O)N[C@H]1CC[C@H](CCN2CCN3c4cccc5[nH]cc(c45)C[C@H]3C2)CC1 [(−)-I-10]
improvement of MK801-induced recognition impairment (in words) (C57B6 male mice [1]; 0.1 mg/kg and 0.025 mg/kg): significantly improve
Distinguishing index (DI) (C57B6 male mice [1]; 0.00625 mg/kg): 0.05971 ± 0.03658
Distinguishing index (DI) (C57B6 male mice [1]; 0.025 mg/kg): 0.3320 ± 0.06367
Distinguishing index (DI) (C57B6 male mice [1]; 0.1 mg/kg): 0.2789 ± 0.04036
Immobility time, forced swimming experiment (C57B6 male mice [2]; 0.00625 mg/kg intraperitoneal): 76.09 s
Immobility time, forced swimming experiment (C57B6 male mice [2]; 0.025 mg/kg intraperitoneal): 56.59 s
Immobility time, forced swimming experiment (C57B6 male mice [2]; 0.1 mg/kg intraperitoneal): 42.76 s
Immobility time, forced swimming experiment (C57B6 male mice [2]; 0.4 mg/kg intraperitoneal): 22.40 s
inhibition of restraint-induced depression-like behavior (in words) (C57B6 male mice [3]; 0.4 mg/kg and 0.1 mg/kg, tail suspension and forced swimming): significantly inhibit
Immobility time, tail suspension experiment (C57B6 male mice [3]; 0.00625 mg/kg intraperitoneal): 132.6 s
Immobility time, tail suspension experiment (C57B6 male mice [3]; 0.025 mg/kg intraperitoneal): 101.8 s
Immobility time, tail suspension experiment (C57B6 male mice [3]; 0.1 mg/kg intraperitoneal): 90.31 s
Immobility time, tail suspension experiment (C57B6 male mice [3]; 0.4 mg/kg intraperitoneal): 72.66 s
